“And” between values parts separate entries of the source, which are not always exact repeats. Equal entries are not always repeated.
Assays:
Type in all cases: physicochemical
[1] = Dynamic moisture sorption gravimetry (controlled atmosphere microbalance, 25° C)
Method: Dynamic Moisture Sorption Gravimetry
Dynamic moisture uptake is studied on the controlled atmosphere microbalance system at 25° C. About ten mg of sample are equilibrated on the balance for about 2 hours at 2.5% RH. The relative humidity surrounding the sample is increased in increments of 3% RH up to about 92% RH, at which point the RH is decremented in 3% steps to a final RH of about 2.5%. At each relative humidity, the sample is allowed to equilibrate until the mass is stable within 0.0005 mg over a ten minute period. The dry mass is assumed to correspond to the mass of the sample after the initial equilibration period. A controlled atmosphere microbalance is a balance system described by Bergren, M.S. Int. J. Pharm. (1994) Vol. 103, pp. 103-114.
(§1) Detailed description of FIG. 2. […] The ordinate represents the mass change relative to the lowest mass measurement. The abscissa is relative humidity. The circles represent points recorded after sequential increases in the relative humidity and the squares were recorded after decreases in the relative humidity. The horizontal line in the middle of the plot corresponds to the water content of the hypothetical monohydrate of the quinolone.
as §1, with “6.” for “2.”

[2] = Stability of the solid forms to phase transformation (overall finding); details: variety of conditions
[3] = Isothermal calorimetry (ITC) of Form I to Form III conversion
Method: Isothermal calorimetry (ITC) experiments are conducted using a model 2277 microcalorimeter made by ThermoMetric (see Suurkuusk, J.:Wadso, I. Chem. Scr. (1982) Vol. 20 pp. 155-163). The Digitam® version 2.1 software from Thermometric is used to display the data and to integrate the total heat obtained from the samples. Heat flow is monitored as a function of time at 60° C. and at 40° C. Both glass and stainless steel ampules are used to hold the solid samples and the reference material (quartz sand). Samples are thermally equilibrated for a period ranging from 15 minutes (glass ampules) to 1 hour (stainless steel ampules) prior to recording thermal data. The weight of the samples ranged from about 75 to 300 mg. Samples in glass ampules are equilibrated via the isopiestic method at 53% or 75% RH in chambers containing saturated solutions of sodium chloride or calcium nitrate tetrahydrate. The ampules are capped immediately after removing the samples. Other samples are equilibrated using "microhygrostats" containing small quantities of saturated salt solutions which are sealed within the ampules. This arrangement provided for nearly constant relative humidity as the crystal conversion proceeded.
We therefore studied the transformation of samples after equilibration at […] and 75% RH. […] HPLC analysis of the reaction product confirmed that the 60° C. ITC profiles contained negligible contributions from chemical decomposition.
A detailed explanation of FIG. 9 follows. […] Trace (a) is recorded from a sample of Form I equilibrated to 75% relative humidity before sealing the sample container and exposing it to the 60° C. conditions in the calorimeter. Trace (b) is recorded for a sample of Form I at 60° C., but a 75% relative humidity "microhygrostat" is placed in the sample container just prior to recording the data. The conversion is delayed from that of trace (a) due to the fact that the water must be transported from the microhygrostat to the Form I crystals during the experiment. Trace (c) is recorded for a sample of Form I at 60° C., but the sample was equilibrated at 53% relative humidity prior to sealing the sample container.
This trace results from placing a 75% relative humidity microhygrostat into the sample container just prior to recording the data. The sample is held at 40° C. in the calorimeter; the heat flow results as the Form I material converts to Form III.

[4] = Powder XRD after humidity exposure; details: 75% relative humidity, ambient temperature, 5 days
Method: A Rigaku DMAX-A X-ray diffractometer is employed for the acquisition of the powder XRD patterns. The instrument is operated with the copper K-L3 radiation at 1.5406 Å. The major instrumental parameters are set as follows: 40 KV voltage, 30 mA current, beam aperture of 1° and detector aperture (receiving slit) of 0.30°. Patterns are scanned over the range of 3-40° two-theta angles with a scan rate of 1.5° two-theta/min (step size of 0.05° and counting time at 2 second/step). Samples are ground to fine powders and packed into an aluminum tray.

[5] = Solubility of the quinolone, Forms I and III, in ethyl acetate; details: 20° C, two values given
Method: Bulk drug samples are prepared by dissolving the material in mobile phase at a final concentration of approximately 0.25 to 0.5 mg/ml. For solubility experiments, 100 mcl aliquots of ethyl acetate solutions are withdrawn and placed directly into HPLC autosampler vials. A gentle stream of nitrogen gas is used to evaporate the solvent in the sample vials. The solids are reconstituted with 0.5 ml of HPLC mobile phase prior to analysis.
Solubilities are measured in ethyl acetate. Five to ten milligrams of bulk drug are placed into an amber autoinjector vial, and 3.0 ml of ethyl acetate are added. The vials are capped and shaken for intervals up to 24 hours at room temperature using a Burrell model BB wrist-action shaker. Aliquots are withdrawn from the supernate after centrifugation. The final sample is taken from a quiescent solution which had not been shaken since the 24 hour timepoint.
The solubilities of Forms I and III were determined in ethyl acetate at room temperature; the solubility data for each form was gathered simultaneously, to assure that each form's solubility was measured under identical conditions. Ethyl acetate was employed as an aprotic solvent yielding fairly low equilibrium solubilities of the quinolone; ethyl acetate has been used to evaluate the difference in free energy of polymorphic forms of an antinociceptive drug, as described by K. Raghavan et al., J. Pharm. Biomed. Anal. Vol.12 (6), pp. 777-785 (1994). Under the assumption that the solubilities in TABLE S are consistent with the dilute solution limit, we can use the following expression to calculate the difference in Gibbs free energy between Form I and Form III: [formula] where "sx " is the solubility of Form x in a sufficiently dilute solution, R is the gas constant, and T is the absolute temperature. Using the data in Table 1, we find that the Gibbs free energy of Form III is lower than that of Form I by 7.7±0.2 kJ/mole.

- Moisture content on desorption ([1]; RH decreased to 10%): about 4.3%
- Moisture content on desorption ([1]; RH decreased to 80%): about 4.9%
- Moisture plateau ([1]; sorption, 90-92% RH): 7.5-7.7 % w/w
- Moisture pickup ([1]; sorption, up to 70% RH): 1%
- Conversion exotherm, beginning ([3]; 40° C, 75% RH microhygrostat): about 6 hours
- Conversion exotherm, end ([3]; 40° C, 75% RH microhygrostat): about 50 hours
- Integrated enthalpy change, low moisture sample ([3]; 60° C, after 80 hours, mixture of Forms I and III): about 10 J/g
- Final state of high moisture sample (in words) ([3]; 60° C, equilibrated at 75% RH, by XRD and DSC): converted completely to Form III
- Initial water content of Form I sample ([3]; before ITC at 40° C): 0.54%
- Lowest temperature at which conversion of Form I to Form III was observed ([3]; microcalorimeter): 40 °C
- Solubility, concentration ([5]; 1 hour, 60 min): 2890 µg/mL and 2780 µg/mL
- Solubility, concentration ([5]; 2 hours, 120 min): 2180 µg/mL and 2990 µg/mL
- Solubility, concentration ([5]; 4.5 hours, 270 min): 3010 µg/mL and 3110 µg/mL
- Solubility, concentration ([5]; 18 hours, 1080 min): 3020 µg/mL and 3080 µg/mL
- Solubility, concentration ([5]; 24 hours, 1440 min): 3240 µg/mL and 3320 µg/mL
- Solubility, concentration ([5]; 67.5 hours (not shaken after 24 hours), 4050 min): 3220 µg/mL and 3240 µg/mL
SMILES: CN[C@@H](C)[C@@H]1CCN(c2c(F)cc3c(=O)c(C(=O)O)cn(C4CC4)c3c2OC)C1 [Form I, [S-(R*,S*)]-1-cyclopropyl-6-fluoro-1,4-dihydro-8-methoxy-7-[3-[1-(methylamino)ethyl]-1-pyrrolidinyl]-4-oxo-3-quinolinecarboxylic acid]
- Stability to transformation (in words) [2]: undergo phase transformations under a variety of conditions
- Rate of conversion Form I to Form III, dependence on humidity ([3]; 60° C, 51% vs 75% RH): slower at 51% RH than at 75% RH by about two orders of magnitude
- Conversion of Form I to Form III under dry conditions (in words) ([3]; > 7 days at 40° C./50% RH or 5 days at 60° C.): did not convert to Form III under dry conditions, even after greater than 7 days at 40° C./50% RH or after 5 days at 60 °C
- Conversion of Form I to Form III (in words) ([3]; equilibrated at 75% RH, 60° C): convert completely to Form III in less than one day at 60 °C
- Conversion of Form I to Form III (in words) ([3]; initial water activity at least 53% RH): direct conversion of Form I to Form III occurs without the formation of Form II
- Diffraction pattern after humidity exposure [4]: does not change after Form I is exposed to 75% relative humidity at ambient temperature for 5 days

Source: patent US5985893A, “Physically stable solid form of a fluoroquinolone” (Pharmacia & Upjohn Company, priority 1996, dated 1999)
